Assay results taken from patent publication US20100196321A1, “COMPOUNDS” (GLAXOSMITHKLINE LLC, priority 2009, published 2010).

Legend:
[1] = tested on: HCV mutant replicon D168A; test: HCV PI Transient Replicon Assay, D168A; type: cell-based; settings: Hepatitis C virus, 72 h, read-out: D168A EC50 values (nM)
Excerpt: (§1) A model system for HCV RNA replication is a cell based assay using subgenomic or genomic HCV replicons containing HCV genes and possibly a selectable and/or screenable marker. […] The HCV PI transient replicons assay was derived from two publications ([…]; J Virol 75, 12047, 2001). In this assay, the target cells were “ET Cured cells”, a cell line generated by treating ET replicons cells (RebliKon) with Interferon a for several passages until the HCV genome was cleared. Other modifications to the published protocol included 1) cells were transfected in PBS and 2) were treated for 72 hours with compounds. Data from dose responses was analyzed using BioAssay. EC50 values were generated by plotting percent inhibition against compound concentration. The various HCV mutant replicons were generated by standard molecular biology techniques and confirmed by sequencing.

HCV replicon wt = test: HCV PI Transient Replicon Assay, wt; type: cell-based; settings: Hepatitis C virus; ET Cured cells, 72 hours
Excerpt: as §1

[2] = tested on: HCV mutant replicon D168V; test: HCV PI Transient Replicon Assay, D168V; type: cell-based; settings: Hepatitis C virus, 72 h, read-out: D168V EC50 values (nM)
Excerpt: as §1

[3] = tested on: HCV mutant replicon A156V; test: HCV PI Transient Replicon Assay, A156V; type: cell-based; settings: Hepatitis C virus, 72 h, read-out: A156V EC50 values (nM)
Excerpt: as §1

[4] = tested on: HCV mutant replicon A156T; test: HCV PI Transient Replicon Assay, A156T; type: cell-based; settings: Hepatitis C virus, 72 h, read-out: A156T EC50 values (nM)
Excerpt: as §1

[5] = tested on: HCV mutant replicon R155K; test: HCV PI Transient Replicon Assay, R155K; type: cell-based; settings: Hepatitis C virus, 72 h, read-out: R155K EC50 values (nM)
Excerpt: as §1

[6] = tested on: HCV mutant replicon A156S; test: HCV PI Transient Replicon Assay, A156S; type: cell-based; settings: Hepatitis C virus, 72 h, read-out: A156S EC50 values (nM)
Excerpt: as §1

[7] = tested on: HCV protease-resistant mutants; test: HCV PI Transient Replicon Assay, profile over resistant mutants; type: cell-based; settings: e.g. A1566S, A156T, R155K, others
Excerpt: as §1
Compounds of the invention are thought to be active against HCV protease-resistant mutants. […] EC50 values (nM) are shown below in Table 3.

[8] = tested on: sub-genomic HCV NS3-NS5B replicon of genotype 1b (ET subline) in Huh-7 cells; test: Replicon Luciferase Cell Based Assay, genotype 1b; set-up: species or system HCV genotype 1b; settings: Hepatitis C virus, Huh-7, 48 h, read-out: Genotype 1b (IC50 μM)
Outline: (§2)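 5,000 luciferase-replicon cells per well in DMEM with 5% FCS were exposed to 1:3 compound dilutions for 48 h at 37 °C. Firefly luciferase (Steady-Glo) was read, with CellTiter-Glo on duplicate plates for cytotoxicity; background-subtracted signal as % of compound-free control gave IC50.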

[9] = biological target: HCV Genotype 1a NS3-4A Protease Domain (Hepatitis C virus genotype 1a, UniProt P27958, T1100M/T1173A); test: Hepatitis C NS3 Protease FRET Assay (RET-S1); type: biochemical
Procedure: Hepatitis C NS3 Protease FRET Assay (RET-S1) Using the HCV Genotype 1a NS3-4A Protease Domain
Compounds were tested as inhibitors of HCV NS3-4A protease domain in 10 μl reactions which contained 50 mM HEPES pH 7.5, 20% sucrose, 0.05% NP40, 5 mM DTT, 1 μM 4A peptide ([…] that served as a cofactor and activated the enzyme in the assay) (prepared by standard synthetic methods), 5 μM RET S1 substrate (Ac-DED(EDANS)EEAbu ψ[COO] ASK(DABCYL)) and 1 nM NS3 protease domain. The RET S1 substrate (Ac-Asp-Glu-Asp(EDANS)-Glu-Glu-Abu-ψ-[COO]-Ala-Ser-Lys(DABCYL)-NH2) was purchased from Anaspec, Inc. (Taliani et. al, 1996, Anal Biochem). “ψ-[COO]” refers to the location of the ester bond within the molecule
Cleavage of the substrate, which is based on the natural NS4A/NS4B junction (DEMEECASHL), was monitored by measuring the increase in fluorescence with 355 nm excitation/495 nm emission in a Molecular Devices SpectraMax Gemini plate reader. Compounds were dissolved in DMSO and tested at 10 μM in duplicate or in dose response curves with usually 10 μM top concentration and 3-fold dilutions. The maximum level of DMSO was 5%. The standard compound in the assay was the compound BILN-2061 (Lamarre at al., (2003) Nature, 426, 186-189).

[10] = tested on: sub-genomic HCV NS3-NS5B replicon of genotype 1a in Huh-7 cells; test: Replicon Luciferase Cell Based Assay, genotype 1a; set-up: species or system HCV genotype 1a; settings: Hepatitis C virus, Huh-7, 48 hours
Outline: as §2

Row | SMILES | EC50 [1] [nM] | EC50 (HCV replicon wt) [nM] | EC50 [2] [nM] | EC50 [3] [nM] | EC50 [4] [nM] | EC50 [5] [nM] | EC50 [6] [nM] | profile against resistant mutants compared with other HCV PI inhibitors ITMN-191 and TMC-435350 [7] | IC50 [8] [µM] | IC50 [9] [nM] | IC50 [10] [µM]
1 | CC(C)(C)OC(=O)N[C@H]1CCCCC/C=C\[C@@H]2C[C@@]2(C(=O)NS(=O)(=O)C2CC2)NC(=O)[C@@H]2C[C@@H](OC(=O)N3Cc4cccc(F)c4C3)CN2C1=O [ITMN-191] | 54.4 | 0.07 | 33.1 | 11.9 | 6.46 | 109 | 1.64 |  |  |  | 
2 | COc1ccc2c(O[C@@H]3C[C@H]4C(=O)N[C@]5(C(=O)NS(=O)(=O)C6CC6)C[C@H]5/C=C\CCCCC[C@H](NC(=O)N5CCCCC5)C(=O)N4C3)cc(-c3nc(C(C)C)cs3)nc2c1C [Example 16, (2R,6S,13aS,14aR,16aS)-N-(cyclopropylsulfonyl)-2-{[8-methyl-2-[4-(1-methylethyl)-1,3-thiazol-2-yl]-7-(methyloxy)-4-quinolinyl]oxy}-5,16-dioxo-6-[(1-piperidinylcarbonyl)amino]-1,2,3,6,7,8,9,10,11,13a,14,15,16,16a-tetradecahydrocyclopropa[e]pyrrolo[1,2-a][1,4]diazacyclopentadecine-14a(5H)-carboxamide] | 24.8 | 0.04 | 80.6 | 7.17 | 1.95 | 6.93 | 0.07 | improved profile | < 0.01 | 5 | < 0.01
3 | COc1ccc2c(O[C@@H]3C[C@H]4C(=O)N[C@]5(C(=O)NS(=O)(=O)C6CC6)C[C@H]5/C=C\CCCCN(C)C(=O)[C@@H]4C3)cc(-c3nc(C(C)C)cs3)nc2c1C [TMC-435350] | 161 | 0.87 | 43.7 | 36.3 | 57.5 | 58.9 | 0.28 |  |  |  | 
4 | COc1ccc2c(O[C@@H]3C[C@H]4C(=O)N[C@]5(C(=O)NS(=O)(=O)C6CC6)C[C@H]5/C=C\CCCCC[C@H](NC(=O)N5CCCC5)C(=O)N4C3)cc(-c3nc(C(C)C)cs3)nc2c1C [Example 15, (2R,6S,13aS,14aR,16aS)-N-(cyclopropylsulfonyl)-2-{[8-methyl-2-[4-(1-methylethyl)-1,3-thiazol-2-yl]-7-(methyloxy)-4-quinolinyl]oxy}-5,16-dioxo-6-[(1-pyrrolidinylcarbonyl)amino]-1,2,3,6,7,8,9,10,11,13a,14,15,16,16a-tetradecahydrocyclopropa[e]pyrrolo[1,2-a][1,4]diazacyclopentadecine-14a(5H)-carboxamide] |  |  |  |  |  |  |  |  | < 0.01 |  | < 0.01
